{"source": "patent EP4759812A1", "about": "(Guangzhou Lupeng Pharmaceutical Co., Ltd., priority 2023, dated 2025)", "assay_type_in_all_cases": "physicochemical", "key": {"[1]": {"test": "Dynamic vapor sorption (DVS) experiment", "conditions": "for Hygroscopicity: class per Chinese Pharmacopoeia 2010 guidance (25±0.2°C, 80% relative humidity)"}, "[2]": {"test": "Influencing factor stability: high-humidity test", "conditions": "Temperature 25°C, relative humidity 92.5±5%; for Purity: HPLC, starting purity: Crystal form VI 99.32%, Amorphous form 98.80%, Crystal form XIII 99.01%; for Crystal form: XRPD", "procedure": "(§1) The crystal form results under different conditions were identified by XRPD analysis, and the purity results under different conditions were identified by HPLC analysis.\n(§2) The above samples were then taken on days 5, 10, 15, and 30, respectively. Their crystal forms were tested by adopting X-ray powder diffraction (XRPD), and the sample purities were tested by adopting HPLC. […]"}, "[3]": {"test": "Accelerated stability test", "conditions": "40±2°C, 75±5 RH %; for Crystal form: XRPD"}, "[4]": {"test": "Influencing factor stability: high-temperature test", "conditions": "Temperature 60°C; for Purity: HPLC, starting purity: Crystal form VI 99.32%, Amorphous form 98.80%, Crystal form XIII 99.01%; for Crystal form: XRPD", "procedure": "as §1, §2"}, "[5]": {"test": "Morphological comparison under polarizing light microscope"}, "[6]": {"test": "Influencing factor stability: light exposure test", "conditions": "Visible light 4500 Lux ± 500 Lux; for Crystal form: ultraviolet light 1.7 W*h/m^2 (25°C, RH 60%±5%), XRPD; for Purity: HPLC, starting purity: Crystal form VI 99.32%, Amorphous form 98.80%, Crystal form XIII 99.01%", "procedure": "as §1, §2"}, "Long-term stability test": {"test": "Long-term stability test", "conditions": "25±2°C, 60±5 RH %; for Crystal form: XRPD"}, "[7]": {"test": "Stability test in pure water and buffer solution (suspension, XRPD)", "conditions": "25°C, stirred 24 h, solid by XRPD", "procedure": "The suspensions were stirred at 25°C for 24 h, and filtered to obtain the solids. Samples were taken for XRPD measurement. […]"}}, "note": "“Also recorded” adds a separate entry of the source.", "data": [{"compound": "C=CC(=O)Nc1cc(Nc2nc(-c3ccnc(N4CCn5c(cc6c5CC(C)(C)C6)C4=O)c3CO)cn(C)c2=O)ccc1N1CCN(C2CCOCC2)C[C@@H]1C", "note": "[Crystal form VI, (S)-N-(5-((6-(2-(7,7-dimethyl-1-oxo-1,3,4,6,7,8-hexahydro-2H-cyclopenta[4,5]pyrrolo[1,2-a]pyrazin-2-yl)-3-(hydroxymethyl)pyridin-4-yl)-4-methyl-3-oxo-3,4-dihydropyrazin-2-yl)amino)-2-(2-methyl-4-(tetrahydro-2H-pyran-4-yl)piperazin-1-yl)phenyl)acrylamide]", "values": [{"measurement": "Adsorption weight gain (80% RH)", "setting": "[1]; DVS, 80% RH", "value": 0.79, "unit": "%"}, {"measurement": "Adsorption weight gain (95% RH)", "setting": "[1]; DVS, 95% RH", "value": 1.34, "unit": "%"}, {"measurement": "Hygroscopicity", "setting": "[1]", "value": "Slightly hygroscopic (hygroscopic weight gain is less than 2% but not less than 0.2%)"}, {"measurement": "Hygroscopicity", "setting": "[1]; listed as crystal form VI", "value": "slightly hygroscopic; also recorded: slight hygroscopicity"}, {"measurement": "Purity", "setting": "[2]; 5 days", "value": 99.35, "unit": "%"}, {"measurement": "Crystal form", "setting": "[2]; 5 days", "value": "Crystal form VI"}, {"measurement": "Purity", "setting": "[2]; 10 days", "value": 99.35, "unit": "%"}, {"measurement": "Crystal form", "setting": "[2]; 10 days", "value": "Crystal form VI"}, {"measurement": "Purity", "setting": "[2]; 15 days", "value": 99.32, "unit": "%"}, {"measurement": "Crystal form", "setting": "[2]; 15 days", "value": "Crystal form VI"}, {"measurement": "Purity", "setting": "[2]; 30 days", "value": 99.31, "unit": "%"}, {"measurement": "Crystal form", "setting": "[2]; 30 days", "value": "Crystal form VI"}, {"measurement": "Purity", "setting": "[3]; 0 days", "value": 99.32, "unit": "%"}, {"measurement": "Crystal form", "setting": "[3]; 0 days", "value": "Crystal form VI"}, {"measurement": "Purity", "setting": "[3]; 1 month", "value": 99.18, "unit": "%"}, {"measurement": "Crystal form", "setting": "[3]; 1 month", "value": "Crystal form VI"}, {"measurement": "Purity", "setting": "[3]; 3 months", "value": 98.98, "unit": "%"}, {"measurement": "Crystal form", "setting": "[3]; 3 months", "value": "Crystal form VI"}, {"measurement": "Purity", "setting": "[3]; 6 months", "value": 98.54, "unit": "%"}, {"measurement": "Crystal form", "setting": "[3]; 6 months", "value": "Crystal form VI"}, {"measurement": "Crystal form", "setting": "[3]; 6 months, listed as crystal form VI", "value": "no change in crystal form"}, {"measurement": "Purity", "setting": "[4]; 5 days", "value": 99.31, "unit": "%"}, {"measurement": "Crystal form", "setting": "[4]; 5 days", "value": "Crystal form VI"}, {"measurement": "Purity", "setting": "[4]; 10 days", "value": 99.25, "unit": "%"}, {"measurement": "Crystal form", "setting": "[4]; 10 days", "value": "Crystal form VI"}, {"measurement": "Purity", "setting": "[4]; 15 days", "value": 98.96, "unit": "%"}, {"measurement": "Crystal form", "setting": "[4]; 15 days", "value": "Crystal form VI"}, {"measurement": "Purity", "setting": "[4]; 30 days", "value": 98.72, "unit": "%"}, {"measurement": "Crystal form", "setting": "[4]; 30 days", "value": "Crystal form VI"}, {"measurement": "Crystal form", "setting": "[4]; 30 days, listed as crystal form VI", "value": "no change in crystal form"}, {"measurement": "dispersibility and flowability / agglomeration and caking", "setting": "[5]; judged from polarizing light microscope images", "value": "relatively good dispersibility and flowability"}, {"measurement": "crystal morphology", "setting": "[5]; polarizing light microscope", "value": "long rod-shaped"}, {"measurement": "Crystal form", "setting": "[6]; 5 days", "value": "Crystal form VI"}, {"measurement": "Crystal form", "setting": "[6]; 10 days", "value": "Crystal form VI"}, {"measurement": "Crystal form", "setting": "[6]; 15 days", "value": "Crystal form VI"}, {"measurement": "Crystal form", "setting": "[6]; 30 days", "value": "Crystal form VI"}, {"measurement": "Purity", "setting": "[6]; ultraviolet light 1.7 W*h/m^2, 5 days", "value": 99.17, "unit": "%"}, {"measurement": "Purity", "setting": "[6]; ultraviolet light 1.7 W*h/m^2, 10 days", "value": 99.23, "unit": "%"}, {"measurement": "Purity", "setting": "[6]; ultraviolet light 1.7 W*h/m^2, 15 days", "value": 98.71, "unit": "%"}, {"measurement": "Purity", "setting": "[6]; ultraviolet light 1.7 W*h/m^2, 30 days", "value": 98.14, "unit": "%"}, {"measurement": "Purity", "setting": "Long-term stability test; 0 days", "value": 99.32, "unit": "%"}, {"measurement": "Crystal form", "setting": "Long-term stability test; 0 days", "value": "Crystal form VI"}, {"measurement": "Purity", "setting": "Long-term stability test; 1 month", "value": 99.31, "unit": "%"}, {"measurement": "Crystal form", "setting": "Long-term stability test; 1 month", "value": "Crystal form VI"}, {"measurement": "Purity", "setting": "Long-term stability test; 6 months", "value": 99.35, "unit": "%"}, {"measurement": "Crystal form", "setting": "Long-term stability test; 6 months", "value": "Crystal form VI"}, {"measurement": "Purity", "setting": "Long-term stability test; 12 months", "value": 99.28, "unit": "%"}, {"measurement": "Crystal form", "setting": "Long-term stability test; 12 months", "value": "Crystal form VI"}, {"measurement": "Purity", "setting": "Long-term stability test; 18 months", "value": 99.31, "unit": "%"}, {"measurement": "Crystal form", "setting": "Long-term stability test; 18 months", "value": "Crystal form VI"}, {"measurement": "Purity", "setting": "Long-term stability test; 24 months", "value": 99.30, "unit": "%"}, {"measurement": "Crystal form", "setting": "Long-term stability test; 24 months", "value": "Crystal form VI"}, {"measurement": "Crystal form", "setting": "Long-term stability test; 24 months, listed as crystal form VI", "value": "no change in crystal form"}, {"measurement": "Suspension result", "setting": "[7]; Pure water", "value": "Crystal form VI"}, {"measurement": "Suspension result", "setting": "[7]; pH 4.5 buffer solution", "value": "Crystal form VI"}, {"measurement": "Suspension result", "setting": "[7]; pH 6.8 buffer solution", "value": "Crystal form VI"}]}]}
